In patent US11921020B2, “Method of purifying tumor cells using shear stress” (UNIVERSITY OF IOWA RESEARCH FOUNDATION, priority 2011, dated 2024):

Experiments:
[1] = tested on: PC-3 cells; assay: Fluid shear stress protocol (repeated passage through 30 gauge needle), cell viability; format: cell-based, human; conditions: for shear stress resistance of cells in PBS supplemented with the cation: 88 mM final concentration, n=1
Procedure: (§1) 5 mL of a 5×10^5 cell/mL suspension was placed into 10 mL glass beaker (Pyrex) and loaded into a 5 mL syringe (BD Biosciences #309603) by slowly drawing the cells into the syringe manually. A 30 gauge needle (BD Biosciences #305106) was then attached to the syringe and cells were pushed through at a constant flow rate by one of two methods:
Syringe Pump: A Harvard Apparatus PHD-2000 Infuse/Withdraw syringe pump was calibrated for the syringes being used and set to the appropriate flow rate (see Table I). After securing the syringe to the pump housing, a 6-inch small bore extension set (Smiths Medical MX448L) was used to connect the syringe and needle. The 10 mL beaker was secured at a 45-degree angle and the needle rested gently (without damaging the bevel) at the bottom of the beaker. The pump is then turned on and the cell suspension was collected into the beaker. The bore extension, still connected to the needle, was then removed from the syringe, and the syringe was removed from the pump. The cell suspension was re-loaded into the syringe as described above. In a standard assay, this process was repeated until cells have been passaged a total of ten times (control experiments were taken out to 15 passages). After each passage, 100 μL aliquots of cell suspension were removed from the glass beaker in duplicate for viability assays (described below). For non-shear stress treated control, cells which have been in suspension for the entire duration of the assay were aliquoted and treated as 100% viability controls.
(§2) 250 μL/sec flow rate: This is the most commonly used flow rate throughout this example. To facilitate throughput, some experiments at 250 μL/sec were done manually. Here, cell suspensions were prepared as above with one exception: the small bore extension was not used, rather the needle was directly secured to the syringe. Suspensions were pushed through the needle by hand and collected into a 10 mL glass beaker. To control the flow rate using this approach, a timer was zeroed before each needle passage and the time taken to push a given volume through the needle was measured. At each passage, the volume in milliliters was divided by the time in seconds to give flow rate in mL/sec. Data for figures was only obtained from shear stress assays in which the average flow rate over 10 passages was ±10 μL/sec of the targeted 250 μL/sec. […] Further, to assure reproducibility, most assays were repeated ten times or more.
Bioluminescence Imaging (BLI): 100 μL aliquots of shear stress-treated cells or control cells (those sitting in suspension through the duration of shear treatment) were loaded into a black 96 well plate (Costar) in duplicate. Each well was then diluted to 200 μL at final concentration of 150 μg/mL D-luciferin (Promega) using a multichannel pipette. Plates were incubated for 5 minutes at room temperature and then imaged for 5 minutes in an IVIS-100 (Xenogen). Bioluminescence measurements were collected using Living Image 2.50.1 software (Igor Pro). The photon flux of shear treated cells was divided by that of control cells to give % viability. All figures with BLI-derived viability data represent the average of at least 3 experiments.
Next, whether rearrangements of the cytoskeleton occur in response to shear stress and thereby imparts a protective advantage to cells was investigated. […]

[2] = tested on: MDA.MB.231 cells; assay: as above; format: cell-based, human
Procedure: as §1
as §2, with “more. […]” for “more.”

[3] = 20 nM for one hour before shear stress protocol
[4] = brief treatment prior to shear stress protocol

| SMILES | shear stress resistance of cells in PBS supplemented with the cation ([1]; 250 μL/sec) | survival curve under shear stress of cells in PBS supplemented with the cation ([1]; 250 μL/sec, calcium at same concentration as complete medium (129.4 μg/mL)) | cell death in treated cells versus DMSO treated controls after shear stress protocol [2, 3] | cell viability during pretreatment, before shear stress [2, 4] | cell death in treated cells versus DMSO treated controls after shear stress protocol [1, 3] | cell viability during pretreatment, before shear stress [1, 4] |
| --- | --- | --- | --- | --- | --- | --- |
| [Ba] [barium] | equally susceptible to shear stress as cells in nominally calcium-free PBS | – | – | – | – | – |
| [Ca+2] [calcium] | rescues the shear stress resistance phenotype | not significantly different from the media control suspensions | – | – | – | – |
| C=C1[C@@H](C)[C@H]2[C@H](Cc3ccccc3)NC(=O)[C@]23[C@H](OC(C)=O)/C=C/[C@@](C)(O)C(=O)[C@@H](C)C/C=C/[C@H]3[C@@H]1O [cytochalasin-D] | – | – | over 3 fold | not affected | over 3 fold | not affected |
